# Assay results published in patent US9573907B2, “2, 4-pyrimidine derivatives and use thereof” (SNU R&DB FOUNDATION, priority 2009, dated 2017).
# Entries after “also recorded” stand apart in the source; their conditions may differ.
# Target: interaction of gp96 and AIMP1 (Mus musculus, UniProt P08113)
# Test: ELISA assay of gp96-AIMP1 interaction
# Type: binding, murine
# Settings: read-out: Inhibition rate (at 100 nM; %)
# Method: FIGS. 1 to 9 represent suppression of cell surface gp96 by GPM1 reduces DC maturation and B220^+ population in gp96tm transgenic mice. (FIG. 1) Chemical structure of GPM1 (Formula 2) and negative control (NC1, Formula 16) used in this study. (FIG. 2) The dose-dependent effect of GPM1 or NC1 on the AIMP1-gp96 interaction using ELISA method as described. The indicated concentrations of the two compounds and biotin-conjugated murine gp96 were added to AIMP1 coated on the surface of microtiter wells, and gp96 bound to AIMP1 was detected with strepavidin-conjugated peroxidase. (FIG. 3) The binding of GPM1 to gp96 was examined by surface plasmon resonance (SPR). GPM1 at the indicated concentrations was injected to immobilized gp96 and the binding was measured using Biacore 3000. The response data were processed using data from a reference surface and buffer injections. Each concentration was tested in triplicate. (FIG. 4) RAW24.7 cells were treated with 10 μM GPM1 for 24 h. Cell lysates were immunoprecipitated with control IgG or anti-gp96 antibody and the immunoprecipitated proteins were immunoblotted with anti-KDELR1, antiAIMP1 and gp96 antibodies. WCL means whole cell lysate. (FIG. 5) Splenocytes isolated from C57BL/6 mice were treated with vehicle (5% DMSO in PBS), GPM1, or NC1 (10 μM, 24 h), stained for cell surface gp96, and followed by flow cytometry. (FIG. 6) AIMP1^+/+ or AIMP1^−/− mouse splenocytes (2×10^5 cells) were treated with vehicle, GPM1, or NC1 (10 μM, 24 h), fixed, and then co-cultured with WT bone marrow-derived DCs (1×10^4 cells) for 16 h. TNFα secreted from BMDCs was quantified by ELISA. (FIG. 7) Percentage of gp96^+ MHC class II^+ cell population in splenocytes from gp96tm transgenic female mice treated with vehicle (control) (n=9), GPM1 (n=9), and dexamethasone (n=7) at 30 mg/kg. (FIG. 8) Cell surface ICOSL of CD11b^+CD11c^+ (myeloid DCs), CD11b^−CD11c^+ (lymphoid DCs), and CD11b^+CD11c^− (macrophages) cell populations in splenocytes from gp96tm transgenic female mice treated with vehicle (n=9) and GPM1 (n=9) at 30 mg/kg. (FIG. 9) Percentage of B220^+, MHC class II^+, CD4^+, CD8^+, CD4 and CD8 double negative cell populations in splenocytes from gp96tm transgenic female mice treated with vehicle (n=9), GPM1 (n=9), and dexamethasone (n=7) at 30 mg/kg. Student t-test P values comparing GPM1-treated mice with control are indicated.
# 96-well plates (Maxisorp., F96; Nunc) were coated with 500 ng/well AIMP1 in PBS (pH 7.4). After washing, the remaining sites were blocked with PBS containing 1% BSA for 1 h. Binding of 10 ng/well biotin-conjugated gp96 was performed in Tris buffer (25 mM Tris, 10 mM NaCl and 0.4% Triton X-100). Each of the 6,580 compounds was added to the well at 100 nM and the plates were washed and incubated with HRP conjugated streptavidin in PBS containing 0.1% BSA and 0.1% Tween 20 for 30 min. The plates were washed, and then substrate was added to each well. The absorbance was monitored at 450 nm.
# To identify chemicals that can affect membrane translocation of gp96, the present inventors employed the interaction of gp96 with AIMP1 as the screening target. For this screening, the present inventors chose 6,482 chemicals with different pharmacophore representing 150,000 different chemicals deposited in Korea Chemical Bank and identified the compounds that can inhibit the interaction of the two proteins. For the screening, the present inventors set up a modified ELISA method using recombinant AIMP1 and gp96 proteins as described in Experimental methods. Each of the tested compounds gave different effect on the interaction of the two proteins (FIG. 19). And the present inventors have selected 12 compounds that inhibited the interaction more than 95% of the control at 0.1 μM (Table 1). The present inventors obtained 1251 additional compounds derived from these 12 initial hits and tested them again for their activities against the gp96-AIMP1 interaction.
# Chain of interaction of gp96 and AIMP1 (P08113 22-802): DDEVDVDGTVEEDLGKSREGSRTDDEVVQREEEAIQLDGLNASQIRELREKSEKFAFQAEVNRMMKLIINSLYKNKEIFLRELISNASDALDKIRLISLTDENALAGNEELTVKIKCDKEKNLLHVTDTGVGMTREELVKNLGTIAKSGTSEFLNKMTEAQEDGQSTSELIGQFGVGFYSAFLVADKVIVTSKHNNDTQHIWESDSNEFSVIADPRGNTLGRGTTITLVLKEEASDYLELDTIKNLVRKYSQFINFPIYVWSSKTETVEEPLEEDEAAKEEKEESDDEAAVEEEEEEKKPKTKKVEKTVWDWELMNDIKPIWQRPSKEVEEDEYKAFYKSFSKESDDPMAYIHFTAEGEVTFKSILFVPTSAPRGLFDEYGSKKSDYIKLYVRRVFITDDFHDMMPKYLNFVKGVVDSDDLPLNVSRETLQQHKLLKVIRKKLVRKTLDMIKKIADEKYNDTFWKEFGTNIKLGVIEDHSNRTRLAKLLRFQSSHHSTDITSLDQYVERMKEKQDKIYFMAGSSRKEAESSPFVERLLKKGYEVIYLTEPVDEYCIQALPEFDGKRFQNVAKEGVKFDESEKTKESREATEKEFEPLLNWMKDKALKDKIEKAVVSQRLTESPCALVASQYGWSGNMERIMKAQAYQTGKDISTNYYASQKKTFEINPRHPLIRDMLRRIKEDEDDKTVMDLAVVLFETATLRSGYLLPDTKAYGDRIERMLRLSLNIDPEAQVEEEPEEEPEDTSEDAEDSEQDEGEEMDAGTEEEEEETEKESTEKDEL
row,inhibition at 0.1 µM,Structure (SMILES)
1,71%,"COC(=O)C(Oc1nc(OC)cc(OC)n1)c1cccs1 (stereo not shown) [Formula 6, methyl 2-(4,6-dimethoxypyrimidin-2-yloxy)-2-(thiophen-2-yl)acetate]"
2,82%,"COC(=O)C(Oc1nc(OC)cc(OC)n1)C(C)C (stereo not shown) [Formula 5, methyl 2-(4,6-dimethoxypyrimidin-2-yloxy)-3-methylbutanoate]"
3,90%,"COc1nc(OCc2ccccc2)nc(OC)c1C(N)=O [Formula 9, 2-(benzyloxy)-4,6-dimethoxypyrimidine-5-carboxamide]"
4,30%,"COc1cc(OC)nc(O[C@@H](C(=O)O)c2ccccc2)n1 [Formula 8, (R)-2-(4,6-dimethoxypyrimidin-2-yloxy)-2-phenylacetic acid]"
5,95%,"COc1cc(OC)nc(Oc2ccncc2)n1 [Formula 11, 4,6-dimethoxy-2-(pyridin-4-yloxy)pyrimidine]"
6,84%,"Oc1nc(Oc2ccc(F)c(C(F)(F)F)c2)cc(Oc2ccc(F)c(C(F)(F)F)c2)n1 [Formula 14, 4,6-bis(4-fluoro-3-(trifluoromethyl)phenoxy)pyrimidin-2-ol]"
7,54%,"COc1cc(OC)nc(Oc2cccnc2N)n1 [Formula 15, 3-(4,6-dimethoxypyrimidin-2-yloxy)pyridin-2-amine]"
8,99%,"COc1cc(OC)nc(OC(C(=O)O)c2ccccc2)n1 (stereo not shown) [Formula 7, 2-(4,6-dimethoxypyrimidin-2-yloxy)-2-phenylacetic acid]"
9,94%,"COC(=O)C(Oc1nc(OC)cc(OC)n1)c1ccc(Br)cc1 (stereo not shown) [Formula 4, methyl 2-(4-bromophenyl)-2-(4,6-dimethoxypyrimidin-2-yloxy)acetate]"
10,76%,"COc1cc(OC)nc(OCc2ccccc2Cl)n1 [Formula 10, 2-(2-chlorobenzyloxy)-4,6-dimethoxypyrimidine]"
11,97%,"COC(=O)C(C)Oc1nc(C)c(Cl)c(OC)n1 (stereo not shown) [Formula 3, methyl 2-(5-chloro-4-methoxy-6-methylpyrimidin-2-yloxy)propanoate]"

row,Structure (SMILES),inhibition at 0.1 µM
1,"CC(C)(C)Oc1cc(OC(C)(C)C)nc(Oc2cccnc2)n1 [Formula 12, 4,6-di-tert-butoxy-2-(pyridin-3-yloxy)pyrimidine]",86%
2,"CC(C)(C)Oc1ncc(-c2ccccn2)c(OC(C)(C)C)n1 [Formula 13, 2,4-di-tert-butoxy-5-(pyridin-2-yl)pyrimidine]",86%

# Tested on: HL-60 cell lines
# Test: FACS analysis of gp96 on cell surface of HL-60 cell lines
# Type: cell-based
# Settings: 1 mM, 24 hours
# Method: FIG. 35 is a graph showing an FACS analysis result using gp96 antibody, on the amount of gp96 protein existing on a cell surface, when HL-60 cell lines were treated with a 2,4-pyrimidine derivatives at a concentration of 1 mM for 24 hours.
# Also, HL-60 cell lines were treated with a 2,4-pyrimidine derivative at a concentration of 1 mM for 24 hours, and the amount of gp96 protein existing on a cell surface was analyzed through flow cytometry (FACS) using gp96 antibody.
row,Structure (SMILES),amount of gp96 protein existing on a cell surface
1,"COC(=O)[C@@H](C)Oc1nc(OC)cc(OC)n1 [KR-S-012, D-2-(4,6-Dimethoxy-pyrimidin-2-yloxy)-propionic acid methyl ester]","better effects than KR-S-015; also recorded: better than isopropyl (KR-S-009, KR-S-010)"
2,"COc1cc(OC)nc(O[C@H](C(=O)O)C(C)C)n1 [KR-S-022, L-2-(4,6-Dimethoxy-pyrimidin-2-yloxy)-3-methyl-butyric acid]",better effects than KR-S-015
3,"COc1cc(OC)nc(OC(C(=O)N2CCCCC2)C(C)C)n1 (stereo not shown) [KR-S-007, 2-(4,6-dimethoxy-pyrimidin-2-yloxy)-3-methyl-1-piperidin-1-yl-butan-1-one]",better effects than KR-S-015; also recorded: better than ester (KR-S-010) or acid (KR-S-009)
4,"CCN(CC)C(=O)C(Oc1nc(OC)cc(OC)n1)C(C)C (stereo not shown) [KR-S-001, 2-(4,6-Dimethoxy-pyrimidin-2-yloxy)-N,N-diethyl-3-methyl-butyl amide]",better effects than KR-S-015; also recorded: better than ester (KR-S-010) or acid (KR-S-009)
5,"COc1cc(OC)nc(OC(C(=O)N2CCOCC2)C(C)C)n1 (stereo not shown) [KR-S-008, 2-(4,6-dimethoxy-pyrimidin-2-yloxy)-3-methyl-1-morpholin-4-yl-butan-1-one]",better effects than KR-S-015; also recorded: better than ester (KR-S-010) or acid (KR-S-009)
6,"COC(=O)C(C)(C)Oc1nc(OC)cc(OC)n1 [KR-S-013, 2-(4,6-Dimethoxy-pyrimidin-2-yloxy)-2-methyl-propionic acid methyl ester]",better effects than KR-S-015
7,"COc1cc(OC)nc(OC(C(=O)O)C(C)C)n1 (stereo not shown) [KR-S-009, 2-(4,6-dimethoxy-pyrimidin-2-yloxy)-3-methyl-butyric acid]",better effects than KR-S-015
8,"COc1cc(OC)nc(OC(C(=O)O)c2ccccc2)n1 (stereo not shown) [KR-S-017, (4,6-Dimethoxy-pyrimidin-2-yloxy)-phenyl-acetic acid]",better effects than KR-S-015
9,"COc1cc(OC)nc(O[C@H](C)C(=O)O)n1 [KR-S-023, D-2-(4,6-Dimethoxy-pyrimidin-2-yloxy)-propionic acid]","better effects than KR-S-015; also recorded: better than isopropyl (KR-S-009, KR-S-010)"

# Tested on: gp96tm transgenic mice
# Test: not given
# Settings: 2-month intraperitoneal administration, 30 mg/kg
# Method: Female gp96tm transgenic mice (Proc Natl Acad Sci USA. 2003 December 23; 100(26): 15824-15829) were bred and maintained at the animal center for pharmaceutical research, Seoul National University. We used age-matched, 12-26 weeks old mice in each experimental group. To suppress cell surface gp96 we used GPM1 compound. Dexamethasone and GPM1 were dissolved in 5% DMSO in phosphate-buffered saline (PBS) and control vehicle was 5% DMSO in PBS. Compounds were administered i.p. every 24 h for 2 months (30 mg/kg/day). Three groups of each 9 mice were examined. All procedures were conducted in accordance with the Guide for the Care and Use of Laboratory Animals, published by the Korean National Institute of Health.
# Spleen and lymph node cell suspensions were prepared by grindling tissue through sterile mesh and erythrocytes were lysed with RBC lysis buffer (eBioscience, CA). For surface staining, antibodies were fluoresceinisothiocyanate (FITC)-, phycoerythrin (PE)-, PerCP-, or APC-conjugated. Antibodies used were CD4 (RM4-5, H129.12), CD8 (53-6,7), B220 (RA3-6B2), CD11b (M1/70), CD11c (HL3), CD44 (IM7), CD62L (MEL-14), CD69 (H1.2F3), CD25 (PC61.5), IgM (11/41), IgD (11-26C.2a) (BD Pharmingen, CA), MHC class II (M5/114.15.2), Foxp3 (FJK-16s) (eBioscience, CA), and gp96 (Santacruz, Calif.). After staining, cells were washed and analyzed on a FACS can flow cytometer using CellQuest software (BD Bioscience, Mountain View, Calif.).
# Kidney tissue sections of gp96tm transgenic mice were fixed in 10% formaldehyde in PBS and dehydrated using an alcohol gradient. After paraffin infiltration, the tissues were sectioned using a microtome, stained with hematoxylin and eosin (H&E) and analyzed by light microscopy. For immunofluorescent staining, kidneys were sectioned with a cryostat. These cryosections were blocked with normal goat serum, stained with FITC-conjugated goat anti-mouse Ig (BD pharmingen, CA), and then observed by fluorescent microscopy.
# The present inventors compared the effect of GPM1 with phosphate-buffered saline containing 5% DMSO and dexamethasone (Dex), an immunosuppressant of glucocorticoid family as negative and positive control, respectively. Each group consisted of age-matched nine female mice. […] After 2 month, the present inventors isolated MHC class II^+ splenocytes and lymph nodes from vehicle-, Dex-, and GPM1-treated mice and determined the portion of gp96^+ cells by flow cytometry.
row,Structure (SMILES),adverse effects / death during administration
1,"C[C@@H]1C[C@H]2[C@@H]3CCC4=CC(=O)C=C[C@]4(C)[C@@]3(F)[C@@H](O)C[C@]2(C)[C@@]1(O)C(=O)CO [dexamethasone, reference compound]",two of nine

# Same assay, conditions: mouse, in vivo, 30 mg/kg/day
row,Structure (SMILES),total cell count (spleen)
1,"C[C@@H]1C[C@H]2[C@@H]3CCC4=CC(=O)C=C[C@]4(C)[C@@]3(F)[C@@H](O)C[C@]2(C)[C@@]1(O)C(=O)CO [dexamethasone, reference compound]",4.80 ± 2.38 × 10^5

# Same assay, conditions: splenocytes, after 2 month, 30 mg/kg
row,Structure (SMILES),percentages of gp96+ MHC class II+ cells
1,"C[C@@H]1C[C@H]2[C@@H]3CCC4=CC(=O)C=C[C@]4(C)[C@@]3(F)[C@@H](O)C[C@]2(C)[C@@]1(O)C(=O)CO [dexamethasone, reference compound]",~25%
